The NIST ThermoML archive (doi:10.1016/j.fluid.2010.03.010)
Values joined by “and” are separate entries in the source; they are usually repeats but may differ in a detail not shown here. Equal values may be shown once.

Experiment: xn = mol fraction of the nth substance listed
Conditions: 298.03 K, 101.3 kPa, Liquid, Taylor dispersion method

Row | binary diffusion coefficient (x1 = 0) | SMILES | binary diffusion coefficient (x2 = 0)
1 | – | CCCC[n+]1ccn(C)c1.O=S(=O)([N-]S(=O)(=O)C(F)(F)F)C(F)(F)F + O | 4e-08 m2/s [middle of 4 runs]
2 | – | CCCCn1cc[n+](C)c1.N#CN=C=[N-] [1-butyl-3-methylimidazolium dicyanamide] + O | 2.08e-08 m2/s and 2.13e-08 m2/s and 2.11e-08 m2/s and 2.03e-08 m2/s and 1.98e-08 m2/s and 2.05e-08 m2/s and 2e-08 m2/s and 2.28e-08 m2/s
3 | 9.62e-08 m2/s and 9.15e-08 m2/s and 9.84e-08 m2/s and 9.79e-08 m2/s | CCOS(=O)(=O)[O-].CCn1cc[n+](C)c1 [1-ethyl-3-methylimidazolium ethyl sulfate] + O | –
